Here are results for eleven molecules from article PMC3758437 (Kidney international, 2013).

Data set [1] relates to plasma proteins. The data set is classed as in vitro ADME. Conditions: human, plasma (ultrafiltration).
For data set [2] the following is noted: normal subjects; LC/MS/MS assay; mean±sd.
Data set [3] has as its system plasma proteins. The data set is described as follows: Free fraction by stable isotope dilution LC/MS/MS assay. As to conditions: human, plasma (ultrafiltration).

Counter-ions that a name gives are not always drawn. Like-named read-outs stand apart in the source and are kept apart here.

`Cn1c(=O)c2c([nH]c(=O)n2C)n(C)c1=O` [1,3,7-Trimethyluric acid]: the free fraction (fraction unbound) (in general, free concentration divided by total concentration) in the data set with plasma proteins [1] amounted to 0.09 ± 0.03.

`Cn1c(=O)[nH]c2[nH]c(=O)n(C)c2c1=O` [1,7-Dimethyluric acid] showed an unbound share (fraction unbound) with plasma proteins [1] of 0.39 ± 0.3. Same read-out and setting: to `O=C(O)CNC(=O)c1ccco1` [2-Furoylglycine] belongs 0.49. Still for that read-out and setting: as for `O=C(O)CCCCC(=O)O` [Adipic acid], the figure is 0.04 ± 0.01. For the molecule `CN1CC(=O)NC1=N` [Creatinine], the “Plasma Free Concentration” value in data set [2] stood at 74 ± 13 µM. For `O=C(O)CNC(=O)c1ccccc1` [Hippurate], the values for the fraction unbound with plasma proteins [1] and with plasma proteins [3] were 0.27 ± 0.05 and 0.41 ± 0.02, respectively. Also, in data set [2], the “Plasma Free Concentration” value stood at 1.5 ± 0.9 µM. The like results for `O=S(=O)(O)Oc1c[nH]c2ccccc12` [Indoxyl sulfate] were, in that order, 0.02 ± 0.01, 0.027 ± 0.004 and 0.13 ± 0.05 µM. Turning to `CC(CC(=O)O)C(=O)O` (stereo not drawn) [Methylsuccinic acid], the free fraction (fraction unbound) in the data set on plasma proteins [1] was 0.11 ± 0.04.

In the data set with plasma proteins [1], `O=C(O)CCCCCCC(=O)O` [Suberic acid] returned a fraction unbound of 0.07 ± 0.02.

Turning to `NC(N)=O` [Urea], in data set [2], the “Plasma Free Concentration” value is 2.4 ± 0.6×10^3 μM. As to `Cc1ccc(OS(=O)(=O)O)cc1` [p-Cresol sulfate], the “Plasma Free Concentration” value in data set [2] amounted to 0.46 ± 0.26 µM.
